The source of these data is patent publication US20160166604A1, “Thiol-Sensitive Positive Inotropes” (priority 2005, published 2016).

The target in assay [1] is T1, RyR2 (Mus musculus, UniProt E9Q401).
T1 construct: endogenous in cells; host or cells: freshly isolated adult mouse cardiac myocytes
Description: RyR2 single channel recordings in planar lipid bilayers. Type of assay: biochemical. The conditions noted are these: for open probability of the channel (Po): control 0.16±0.03. As for the experimental part:
Recording of single RyR2 in lipid bilayers was performed as previously described. Jiang, M. T. et al., Circ. Res., 91, 1015-1022 (2002). Briefly, a phospholipid bilayer of PE:PS (1:1 dissolved in n-decane to 20 mg/ml) was formed across an aperture of ˜300 μm diameter in a delrin cup. The cis chamber (900 μl) was the voltage control side connected to the head stage of a 200 A Axopatch amplifier, while the trans chamber (800 μl) was held at virtual ground. Both chambers were initially filled with 50 mM cesium methanesulfonate and 10 mM Tris/Hepes pH 7.2. After bilayer formation, cesium methanesulfonate was raised to 300 mM in the cis side and 100 to 200 μg of mouse cardiac SR vesicles was added. After detection of channel openings, Cs^+ in the trans chamber was raised to 300 mM to collapse the chemical gradient. Single channel data were collected at steady voltages (−30 mV) for 2-5 min. Channel activity was recorded with a 16-bit VCR-based acquisition and storage system at a 10 kHz sampling rate. Signals were analyzed after filtering with an 8-pole Bessel filter at a sampling frequency of 1.5-2 kHz. Data acquisition and analysis were done with Axon Instruments software and hardware (pClamp v8.0, Digidata 200 AD/DA interface).
To further test whether HNO directly interacted with RyR2 proteins to increase open probability, purified reconstituted RyR2 were expressed in planar lipid bilayers and steady-state activity recorded with or without AS. The cis (cytosolic) solution contained 10 μM activating Ca^2+ and recordings were made at positive 30 mV holding potential. […] The probability of the channel being open (Po) increased from an average 0.16±0.03 without AS to 0.46±0.07 at 0.3 mM AS added to the cytoplasmic side of the channel (n=4). This was reversible upon addition of 2 mM DTT (0.11±0.04). These findings support direct HNO-RyR2 interaction likely via a reversible reaction with thiol groups in the protein.

In assay [2] the target is T2, SR Ca2+ pump (SERCA2a) (Mus musculus, UniProt O55143).
T2 construct: Crude cardiac microsomal vesicles containing fragmented sarcoplasmic reticulum (SR) were prepared; from tissue; host or cells: pooled hearts of C57 male mice (crude SR microsomal vesicles)
Description: ATP-dependent Ca2+ uptake by murine cardiac SR vesicles (stopped-flow, arsenazo III). Type of assay: biochemical. More on the design: total Ca2+ uptake at equilibrium: unit not given here. The procedure: Crude cardiac microsomal vesicles containing fragmented sarcoplasmic reticulum (SR) were prepared as previously described for rat heart. Froehlich, J. P. et al., J. Mol. Cell. Cardiol., 10, 427-438 (1978). Pooled hearts from C57 male mice sacrificed by cervical dislocation were placed in 0.9% saline on ice, trimmed of atrial and connective tissue, and weighed. The finely minced heart muscle was homogenized in 10 mM NaHCO3 using a Polytron blender and the SR vesicles were separated from the myofilaments, mitochondria and nuclear membranes by differential centrifugation at 8,500 and 45,000×g. SR vesicles suspended in 0.25 M sucrose+10 mM MOPS, pH 7.0 were frozen and stored in liquid nitrogen prior to use. Twenty minutes prior to measuring Ca^2+ uptake, cardiac SR vesicles (1 mg/ml in storage buffer) were incubated with 250 μM AS delivered from a freshly-prepared 10 mM stock solution of AS (Na2N2O3) dissolved in 10 mM NaOH. […] Stopped-flow mixing was used to measure the initial time course of Ca^2+ accumulation by murine cardiac SR vesicles using the Ca^2+ indicator dye, arsenazo III. Membrane vesicles (0.4 mg/ml) suspended in a medium containing 100 mM KCl, 1 mM MgCl2, 50 μM arsenazo III, 5 mM sodium azide, and 20 mM MOPS, pH 7.4, were mixed with an equal volume of an identical medium containing 1 mM Na2ATP at 24° C. in a manually-operated stopped-flow apparatus (Applied Photophysics, Ltd.). The change in [Ca^2+] in the mixing cuvette was monitored using a single-beam UV-VIS spectrophotometer (AVIV, Model 14DS) with a monochromator setting of 650 nm. The total [Ca^2+] in the uptake medium was 0.5 μM, yielding a free [Ca^2+] in equilibrium with the Ca-arsenazo III complex of 0.2 μM (KA=3.3×10^4 M^−1). […] The time-dependent decrease in absorbance at 650 nm, reflecting Ca^2+ uptake by the SR vesicles, was monitored for 30-60 s at 0.1 s intervals. […] The signal change due to vesicle light scattering was evaluated from separate measurements conducted under identical conditions at the isosbestic wavelength of 693 nm. For evaluation of the time course of Ca^2+ uptake, a representative trace at 693 nm was subtracted from each of the individual traces at 650 nm acquired under identical conditions. The kinetic and thermodynamic parameters for Ca^2+ uptake were evaluated by fitting stopped-flow signals to one- and two-exponential decay functions plus a residual term using non-linear regression (Prism, Version 3.03). Residual plots of the difference between the fitted curve and data points were used to evaluate systematic errors in the fits and to calculate the sum-of-squares error used in selecting the best fit.
To test whether HNO directly enhances SR Ca^2+ uptake, its effects on SR membrane vesicles isolated from pooled C57/Bl6 mouse hearts were studied. Crude SR microsomal vesicles were incubated with 250 μM AS prior to measuring ATP-dependent Ca uptake by stopped-flow mixing at 24° C. Arsenazo III, a mid-range Ca indicator, was used to monitor Ca removal from the eravesicular compartment and buffer the free [Ca^2+] at a level producing half-saturation of the Ca^2+ pump (˜0.2 μM).

Assay [3] relates to isolated mouse myocytes. Description: SR Ca2+ stores by rapid caffeine infusion in mouse myocytes. Type of assay: cell-based. The conditions noted are these: 1 mM AS; caffeine alone 223±34; n=8. As for the experimental part:
Nitroxyl (HNO) confers positive inotropy in vivo. Here, it was determined whether HNO action stems from a direct influence on sarcoplasmic reticulum (SR) Ca^2+ cycling, involving enhanced Ca^2+ release from ryanodine receptors (RyR2). Myocytes were isolated from ST mice, suspended in Tyrode's solution (1 mM Ca^2+) and field stimulated (0.5 Hz, 25° C.). Sarcomere shortening (SS) was assessed by real-time image analysis, Ca^2+ transients from Indo-1 fluorescence. RyR2 activity was determined by optical imaging of Ca^2+ release from single Ca^2+ release units. The HNO donor Angeli's Salt (AS) induced dose-dependent inotropy (SS: 73±31% at 0.5 mM; 131±31% at 1 mM; all n=15, p<0.05 vs. base; <0.1 mM: no effect). In contrast, the NO donor DEA/NO reduced SS by 55-65% at 5-50 μM (both p<0.05 vs. base), with no effect at higher doses. […] However, co-infusion with the thiol-donating compound N-acetyl-L-cysteine (NAC, 3 mM) abolished AS inotropy.

T1 sequence (E9Q401 whole entry): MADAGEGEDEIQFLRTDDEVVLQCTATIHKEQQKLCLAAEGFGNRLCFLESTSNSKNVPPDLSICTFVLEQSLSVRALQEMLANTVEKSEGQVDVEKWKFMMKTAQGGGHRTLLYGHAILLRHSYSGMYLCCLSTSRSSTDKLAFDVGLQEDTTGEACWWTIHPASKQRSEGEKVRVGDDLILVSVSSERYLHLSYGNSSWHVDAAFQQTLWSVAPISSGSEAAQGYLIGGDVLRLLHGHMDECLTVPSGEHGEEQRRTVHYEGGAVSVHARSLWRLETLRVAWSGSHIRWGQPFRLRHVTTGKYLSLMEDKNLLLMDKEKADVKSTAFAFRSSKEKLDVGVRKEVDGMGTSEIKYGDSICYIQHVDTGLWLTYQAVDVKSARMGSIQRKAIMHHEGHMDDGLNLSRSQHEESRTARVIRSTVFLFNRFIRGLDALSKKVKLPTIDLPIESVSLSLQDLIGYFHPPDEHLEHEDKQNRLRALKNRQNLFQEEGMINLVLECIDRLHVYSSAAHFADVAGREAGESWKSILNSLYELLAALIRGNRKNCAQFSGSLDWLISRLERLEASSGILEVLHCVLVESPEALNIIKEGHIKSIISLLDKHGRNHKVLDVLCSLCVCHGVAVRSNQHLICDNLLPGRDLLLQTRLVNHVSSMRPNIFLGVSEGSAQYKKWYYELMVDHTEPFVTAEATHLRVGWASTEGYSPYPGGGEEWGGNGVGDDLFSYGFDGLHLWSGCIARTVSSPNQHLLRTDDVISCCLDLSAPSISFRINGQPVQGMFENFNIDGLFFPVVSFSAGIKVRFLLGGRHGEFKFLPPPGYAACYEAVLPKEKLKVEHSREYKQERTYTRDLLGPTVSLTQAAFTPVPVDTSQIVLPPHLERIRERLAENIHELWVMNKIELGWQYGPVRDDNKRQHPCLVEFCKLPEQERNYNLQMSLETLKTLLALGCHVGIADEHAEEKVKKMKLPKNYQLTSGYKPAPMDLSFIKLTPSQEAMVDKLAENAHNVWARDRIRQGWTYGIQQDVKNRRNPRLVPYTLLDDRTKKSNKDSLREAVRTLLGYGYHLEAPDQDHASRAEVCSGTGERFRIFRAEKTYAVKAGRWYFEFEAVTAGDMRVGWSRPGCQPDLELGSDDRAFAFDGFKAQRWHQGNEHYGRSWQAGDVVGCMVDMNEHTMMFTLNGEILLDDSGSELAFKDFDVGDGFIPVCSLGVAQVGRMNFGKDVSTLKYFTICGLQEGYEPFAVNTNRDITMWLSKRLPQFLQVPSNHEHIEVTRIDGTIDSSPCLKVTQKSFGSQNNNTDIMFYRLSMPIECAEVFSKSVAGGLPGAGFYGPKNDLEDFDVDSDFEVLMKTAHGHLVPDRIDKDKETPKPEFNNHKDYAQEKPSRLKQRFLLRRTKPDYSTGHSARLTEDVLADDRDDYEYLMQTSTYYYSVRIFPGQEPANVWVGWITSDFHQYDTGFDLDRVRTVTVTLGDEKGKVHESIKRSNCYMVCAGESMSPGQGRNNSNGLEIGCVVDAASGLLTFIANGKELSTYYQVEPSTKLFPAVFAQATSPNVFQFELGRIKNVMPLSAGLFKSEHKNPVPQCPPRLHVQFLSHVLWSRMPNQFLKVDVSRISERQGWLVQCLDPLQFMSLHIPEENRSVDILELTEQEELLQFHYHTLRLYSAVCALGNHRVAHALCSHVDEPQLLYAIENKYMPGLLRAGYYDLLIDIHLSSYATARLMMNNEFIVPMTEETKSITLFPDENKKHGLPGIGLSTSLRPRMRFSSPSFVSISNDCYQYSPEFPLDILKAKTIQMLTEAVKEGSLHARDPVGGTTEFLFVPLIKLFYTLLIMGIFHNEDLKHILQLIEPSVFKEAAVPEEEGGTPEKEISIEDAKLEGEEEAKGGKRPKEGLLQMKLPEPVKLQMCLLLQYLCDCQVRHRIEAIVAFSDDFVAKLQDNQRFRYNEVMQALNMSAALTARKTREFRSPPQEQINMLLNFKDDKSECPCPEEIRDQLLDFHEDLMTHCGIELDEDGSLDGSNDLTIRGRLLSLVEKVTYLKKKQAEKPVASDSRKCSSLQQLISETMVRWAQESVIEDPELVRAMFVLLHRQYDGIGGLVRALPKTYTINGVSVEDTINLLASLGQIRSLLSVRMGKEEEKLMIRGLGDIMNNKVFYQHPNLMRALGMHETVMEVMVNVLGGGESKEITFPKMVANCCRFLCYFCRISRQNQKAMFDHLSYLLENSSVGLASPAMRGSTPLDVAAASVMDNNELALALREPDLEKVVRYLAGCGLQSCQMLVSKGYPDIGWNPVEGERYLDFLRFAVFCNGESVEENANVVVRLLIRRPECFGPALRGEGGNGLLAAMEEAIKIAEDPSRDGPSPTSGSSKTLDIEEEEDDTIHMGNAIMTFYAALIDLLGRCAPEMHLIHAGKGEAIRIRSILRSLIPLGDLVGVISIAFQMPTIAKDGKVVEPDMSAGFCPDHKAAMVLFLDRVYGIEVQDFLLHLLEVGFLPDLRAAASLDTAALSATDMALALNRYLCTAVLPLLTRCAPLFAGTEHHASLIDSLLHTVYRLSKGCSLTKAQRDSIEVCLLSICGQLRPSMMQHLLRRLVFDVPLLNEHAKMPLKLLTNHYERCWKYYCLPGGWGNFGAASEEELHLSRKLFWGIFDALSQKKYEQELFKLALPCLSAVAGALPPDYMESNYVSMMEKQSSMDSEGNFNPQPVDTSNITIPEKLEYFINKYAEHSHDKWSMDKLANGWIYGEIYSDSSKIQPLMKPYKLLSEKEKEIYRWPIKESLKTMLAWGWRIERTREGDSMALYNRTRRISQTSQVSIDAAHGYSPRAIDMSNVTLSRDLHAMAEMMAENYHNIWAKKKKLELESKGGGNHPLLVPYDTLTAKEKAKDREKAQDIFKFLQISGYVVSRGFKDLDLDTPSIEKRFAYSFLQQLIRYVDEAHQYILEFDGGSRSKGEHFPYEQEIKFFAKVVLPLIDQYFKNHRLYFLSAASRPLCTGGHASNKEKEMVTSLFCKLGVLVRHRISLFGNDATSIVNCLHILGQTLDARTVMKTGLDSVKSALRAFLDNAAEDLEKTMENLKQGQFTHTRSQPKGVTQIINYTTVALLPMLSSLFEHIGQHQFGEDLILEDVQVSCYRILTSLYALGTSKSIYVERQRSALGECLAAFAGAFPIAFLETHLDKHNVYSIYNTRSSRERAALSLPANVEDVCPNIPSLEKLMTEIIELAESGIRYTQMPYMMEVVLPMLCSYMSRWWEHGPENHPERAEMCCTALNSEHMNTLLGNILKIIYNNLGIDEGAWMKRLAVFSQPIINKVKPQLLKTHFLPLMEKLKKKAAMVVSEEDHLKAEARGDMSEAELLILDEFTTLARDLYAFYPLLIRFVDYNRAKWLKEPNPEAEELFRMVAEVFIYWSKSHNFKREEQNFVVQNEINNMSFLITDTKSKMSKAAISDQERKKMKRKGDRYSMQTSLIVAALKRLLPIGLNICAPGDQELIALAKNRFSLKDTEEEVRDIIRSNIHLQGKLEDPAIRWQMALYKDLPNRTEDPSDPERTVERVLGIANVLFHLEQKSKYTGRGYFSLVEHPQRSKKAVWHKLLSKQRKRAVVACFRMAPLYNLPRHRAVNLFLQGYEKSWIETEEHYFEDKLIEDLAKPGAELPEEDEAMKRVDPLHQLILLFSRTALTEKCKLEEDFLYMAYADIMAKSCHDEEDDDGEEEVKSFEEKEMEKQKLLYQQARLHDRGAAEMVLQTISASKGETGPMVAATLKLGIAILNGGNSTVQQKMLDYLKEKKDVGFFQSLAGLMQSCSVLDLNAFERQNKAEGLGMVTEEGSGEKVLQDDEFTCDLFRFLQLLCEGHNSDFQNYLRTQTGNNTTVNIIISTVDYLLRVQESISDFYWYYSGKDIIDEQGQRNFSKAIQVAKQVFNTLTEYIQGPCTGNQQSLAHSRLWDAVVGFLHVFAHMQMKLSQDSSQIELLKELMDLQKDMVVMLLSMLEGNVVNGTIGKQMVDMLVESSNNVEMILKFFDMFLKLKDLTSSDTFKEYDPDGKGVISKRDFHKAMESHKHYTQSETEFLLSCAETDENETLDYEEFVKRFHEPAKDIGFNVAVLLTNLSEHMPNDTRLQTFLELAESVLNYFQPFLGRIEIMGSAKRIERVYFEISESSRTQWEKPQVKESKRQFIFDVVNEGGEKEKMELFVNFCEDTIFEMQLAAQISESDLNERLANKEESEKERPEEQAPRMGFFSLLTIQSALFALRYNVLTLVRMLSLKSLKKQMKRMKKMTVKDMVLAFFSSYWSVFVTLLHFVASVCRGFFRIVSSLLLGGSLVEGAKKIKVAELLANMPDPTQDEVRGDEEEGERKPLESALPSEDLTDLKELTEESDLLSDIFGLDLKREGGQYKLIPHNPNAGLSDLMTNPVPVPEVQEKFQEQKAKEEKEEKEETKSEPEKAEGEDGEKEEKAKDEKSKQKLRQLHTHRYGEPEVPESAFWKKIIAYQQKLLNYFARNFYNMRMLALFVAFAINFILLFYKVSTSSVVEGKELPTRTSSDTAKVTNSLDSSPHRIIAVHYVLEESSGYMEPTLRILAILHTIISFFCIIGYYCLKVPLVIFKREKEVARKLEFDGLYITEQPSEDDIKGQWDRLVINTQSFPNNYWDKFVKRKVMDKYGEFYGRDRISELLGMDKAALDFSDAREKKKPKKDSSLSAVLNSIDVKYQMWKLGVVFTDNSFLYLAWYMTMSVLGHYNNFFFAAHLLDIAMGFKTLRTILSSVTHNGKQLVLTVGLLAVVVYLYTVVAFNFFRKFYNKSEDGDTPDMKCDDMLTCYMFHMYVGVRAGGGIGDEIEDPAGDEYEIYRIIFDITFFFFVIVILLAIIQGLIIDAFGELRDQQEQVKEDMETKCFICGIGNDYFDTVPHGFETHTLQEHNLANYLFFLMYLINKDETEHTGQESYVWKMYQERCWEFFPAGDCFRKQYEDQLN

Turning to `[Na+].[Na+].[O-][N+]([O-])=NO` [AS, Angeli's salt], the “open probability of the channel (Po)” value in assay [1] (0.1 mM AS, cis side) was determined as 0.25±0.05; in assay [1] (0.3 mM AS, cytoplasmic side), 0.46±0.07; in assay [1] (1.0 mM AS, cis side) it was 0.69±0.11. Moreover, the “Po of AS-activated channels after DTT” value in assay [1] (2 mM DTT added to cis side) came out at 0.11±0.04. Further, in assay [1] (AS 0.1 to 1 mM), the unitary channel conductance result was “without altering”. Also, the “increase of rate constant for Ca2+ uptake” value in assay [2] (250 μM AS, 0.2 μM free Ca2+, 24° C., n=6) was found to be 104%. For the same molecule, the “rate constant for Ca2+ uptake” value in assay [2] (250 μM AS, without AS 0.1563) came out at 0.3204 s⁻¹. Further, the “rate of initial Ca2+ uptake” value in assay [2] (AS 250 μM) is “enhanced”. In assay [2] (after AS exposure, before 0.00257±0.0003, p=NS), the “total Ca2+ uptake at equilibrium” value is 0.00202±0.000. For the same molecule, the “SR Ca2+ uptake activity after AS solution decayed completely to products” value in assay [2] (decayed AS test solution (e.g. nitrite)) is given as “No stimulation”. Further, the “SR Ca2+ stores (% [Ca2+]i on caffeine)” value in assay [3] came out at 138±17%.
